# Source: US11351194B2, “Method for proliferating neural progenitor cells and composition for treating neurological diseases containing proliferated neural progenitor cells” (COLLEGE OF MEDICINE POCHON CHA UNIVERSITY INDUSTRY-ACADEMIC …, priority 2014, dated 2022)
# Legend:
# [1] = tested on: fetal neural progenitor cells; experiment: Cell viability by MTT assay; type: cell-based, human; conditions: 7 days
# From the text: Human neural progenitor cells were isolated from 14 week-old human fetuses. Before obtaining the fetus samples, informed consents that had been sufficiently described to parents in advance were received. In addition, the sample collection and use thereof for research were approved by the Institutional Review Board of the CHA Hospital. Ventral midbrain tissues in the brain of a […] human fetus were isolated according to the method disclosed in Storch et al. 2001; and Milosevic et al. 2006, 2007, and then, dissociated into a single cell suspension by treating the ventral midbrain tissues in a solution containing 0.1 mg/ml of papain and 100 μg/ml of DNase at a temperature of 37° C. for about 30 minutes. The single cell suspension was washed with phosphate buffered saline (PBS), and then, incubated in 50 μg/ml of antipain at a temperature of 37° C. for 30 minutes. The resulting neural progenitor cells were plated, in a monolayer, at a density of 30,000 cells/cm^2, onto a culture dish that was pre-coated with 15 μg/ml of poly-L-omithine and 4 μg/ml of fibronectin, and then, cultured. The cultured fetus neural progenitor cells were seeded on a 96-well plate at a density of 1×10^4 cells/well, cultured for 7 days, and treated with an MTT reagent. Then, by measuring optical density thereof (at a wavelength of 570 nm), the cell viability was analyzed.
# [2] = tested on: fetal neural progenitor cells; experiment: Immunocytochemistry analysis using GFAP, Tuj1 and DAPI markers; type: cell-based, human; conditions: for expression of Tuj1 / expression of GFAP: in comparison with M1 and M2 (general culture condition); for expression of Tuj1: Ps<0.02, FIG. 4C; for expression of GFAP: Ps<0.04, FIG. 4B; for frequency of expression of both GFAP and Tuj1: FIG. 4D
# Method: (§1) 20 ng/ml of each of bFGF and EGF (available from Peprotech, R&D system) and 10 ml of a B27 supplement (available from GIBCO) were added to 500 ml of a mixed medium of DMEM/F12 (1:1) containing 0.5 ml of Primocin, which is an antibiotic formulation, and then, the fetal neural progenitor cells were cultured under a condition in which 1 μg/ml of DL-alpha-tocopherol acetate (M3), 1 μg/ml of (t)-alpha-tocopherol (M4), or a combination thereof (M5) was added. The resulting fetal neural progenitor cells were compared with those cultured under a general culture condition. Regarding the general culture condition, 20 ng/ml of each of bFGF and EGF and an α-supplement (2.5 mg insulin, 25 mg transferrin, 0.03 μM sodium selenite, 36.5 mg L-glutamine, and 0.75 g L-glucose) were added to 500 ml of a mixed medium of DMEM/F12 (1:1) containing 0.5 ml of Primocin, which is an antibiotic formulation, and then, the fetal neural progenitor cells were cultured therein (M1), or under a condition in which the B27 supplement was further added (M2).
# The neural progenitor cells were seeded on a 24-well plate at a density of 1×10^5 cells/well, cultured for 7 days, and then, subjected to immunocytochemistry analysis using GFAP, Tuj1, and DAPI markers.
# [3] = tested on: fetal neural progenitor cells; experiment: Immunocytochemistry analysis using Ki67, Nestin and DAPI markers; type: cell-based, human; conditions: for expression of Ki67: in comparison with M1 and M2 (general culture condition), Ps<0.0001, FIG. 3B; for frequency of expression of both Ki67 and Nestin: in comparison with general culture condition, FIG. 3C
# Method: as §1
# The fetal neural progenitor cells were seeded on a 24-well plate at a density of 1×10^5 cells/well, cultured for 7 days, and then, subjected to immunocytochemistry analysis using Ki67, Nestin, and DAPI markers.
# [4] = tested on: fetal neural progenitor cells; experiment: Cytometry (cell number); conditions: 1 μg/ml, 7 days; compared to general condition; Ps<0.0001; FIG. 2B
# Method: The resulting fetal neural progenitor cells were compared with those cultured under a general culture condition. Regarding the general culture condition, 20 ng/ml of each of bFGF and EGF and an α-supplement (2.5 mg insulin, 25 mg transferrin, 0.03 μM sodium selenite, 36.5 mg L-glutamine, and 0.75 g L-glucose) were added to 500 ml of a mixed medium of DMEM/F12 (1:1) containing 0.5 ml of Primocin, which is an antibiotic formulation, and then, the fetal neural progenitor cells were cultured therein (M1), or under a condition in which the B27 supplement was further added (M2).
# The fetal neural progenitor cells were seeded on a 6-well plate at a density of 2×10^5 cells/well, cultured for 7 days, and then subjected to cytometry.
# [5] = 1 μg/ml in medium, in comparison with general culture condition (M1, M2), Ps<0.02, FIG. 1
# [6] = hypoxia (oxygen about 0.1% to about 10%) in comparison with normoxia, M3: P<0.009, M4: P<0.01, M5: P<0.001
# [7] = 7 days, in comparison with general culture condition, Ps<0.0001
# [8] = 7 days, in comparison with general culture condition, Ps<0.0001, FIG. 4E
# [9] = 7 days, printed comparator: cells cultured under normoxia, Ps≤0.0001, FIG. 3D
Compound,"cell viability (MTT, optical density 570 nm) [1, 5]","cell viability (MTT, optical density 570 nm) [1, 6]",expression of Tuj1 ([2]; 7 days),expression of GFAP ([2]; 7 days),"frequency of expression of both GFAP and Tuj1 [2, 7]","expression of Dapi [2, 8]",expression of Ki67 ([3]; 7 days),"frequency of expression of both Ki67 and Nestin ([3]; 7 days, Ps≤0.0001)","expression of Dapi [3, 9]",number of fetal neural progenitor cells [4],"expression of Dapi ([2]; hypoxia in comparison with normoxia, M4: P<0.006)","expression of Dapi ([3]; hypoxia compared with normoxia, M4 P<0.006, M5 P<0.0001)"
CC(=O)Oc1c(C)c(C)c2c(c1C)CCC(C)(CCCC(C)CCCC(C)CCCC(C)C)O2 (racemic) [DL-alpha-tocopherol acetate],higher cell viability that is statistically significant,higher cell viability that is statistically significant,reduced expression of Tuj1 in a statistically significant manner,reduced expression of GFAP in a statistically significant manner,lower frequency of expression of both GFAP and Tuj1 together,statistically significant increase in expression of Dapi,increased expression of Ki67 of significance,higher frequency of expression of both Ki67 and Nestin together in a statistically significant manner,statistically significant increase in the expression of Dapi,significantly increased number of fetal neural progenitor cells,–,–
"Cc1c(C)c2c(c(C)c1O)CC[C@@](C)(CCC[C@H](C)CCC[C@H](C)CCCC(C)C)O2 [alpha-tocopherol, (t)-alpha-tocopherol]",higher cell viability that is statistically significant,higher cell viability that is statistically significant,reduced expression of Tuj1 in a statistically significant manner,reduced expression of GFAP in a statistically significant manner,lower frequency of expression of both GFAP and Tuj1 together,statistically significant increase in expression of Dapi,increased expression of Ki67 of significance,higher frequency of expression of both Ki67 and Nestin together in a statistically significant manner,statistically significant increase in the expression of Dapi,significantly increased number of fetal neural progenitor cells,statistically significant increase in the expression of Dapi,statistically significant increase in the expression of Dapi
